Results: patent publication US20140227326A1, “METHOD OF DELIVERING NASAL SPRAY” (priority 2004, published 2014)

Test: Pharmacokinetic testing of olopatadine 0.6% nasal spray in clinical trials (plasma level by HPLC)
Format: in vivo
Settings: human subjects, formulation containing 0.6% olopatadine, two sprays/nostril twice per day, intranasal

Compound: CN(C)CC/C=C1/c2ccccc2COc2ccc(CC(=O)O)cc21 [olopatadine, Z-11-(3-dimethylaminopropylidene)-6,11-dihydrodibenz[b,e]oxepine-2-acetic acid]
- time post-dose at which peak plasma concentration was measured: 0.5 to 2 h
- peak plasma concentration of olopatadine (C.), observed range (plasma, high performance liquid chromatography): 14.4 to 35.3 ng/mL
- peak plasma concentration of olopatadine (C.), mean (plasma, mean +/- spread): 23.3 ± 6.1 ng/mL
